The values below come from patent publication US20120058935A1, “ANTIMICROBIAL COMPOSITIONS AND METHODS OF USE THEREFORE” (priority 2009, published 2012).

In brackets after ≈: the same amount, converted by molar mass. Where two headings read alike, the source gives them in different places. Ends that are not written are not given here.

One data set has as its system 12 microorganisms. The data set is described as follows: Antimicrobial activity against the panel of 12 microorganisms (summary). In kind it is cell-based. The settings on record: summary in words of the MIC experiments. The method, then: Peptide antimicrobial activity was determined as minimal inhibitory concentration (MIC). Experiments identified peptide MIC by broth microdilution susceptibility test in conjunction with CFU and alamar blue assays. Inoculum containing mid-logarithmic phase cells was dispensed into the wells of polypropylene 96-well plates (Fisher, Pittsburgh, Pa.) containing seven two-fold dilutions of test peptide in growth media. Plates were then incubated aerobically overnight (12 to 18 hrs) at 37° C. Peptide MIC was taken as the lowest concentration able reduce cell growth by CFU and alamar blue assays by at least two-fold and which correlated with the visible loss of a growth button on the bottom of microtiter wells. Experiments were repeated a minimum of three times for each organism, and tests included at least three replicates for each assay condition. Experiments included control serial dilutions of buffer vehicle alone.

For data set [1] the following is noted: clinical trial, AD patients, ref. [34]; cited from earlier work.
A further data set relates to E. faecalis. The data set is described as follows: E. faecalis growth curves with peptide (CFU with time). The conditions noted are these: 25 μg/ml peptide; CFU counted with time (FIG. 1). In kind it is cell-based, Enterococcus faecalis.
The subject of a further data set is Streptococcus agalactiae. In kind it is cell-based. The conditions noted are these: ATCC 12386; BHIB/LHB; 12 hrs incubation at 37° C. On the procedure:
(§1) Bacteria were cultured aerobically in Mueller-Hinton broth (MHB), Brain and Heart Infusion broth (BHIB), or BHIB supplemented with 1% lysed horse blood and plated on Tryptone Soy Agar (TSA) plates containing 5% defibrinated sheep blood. […] Organisms were subcultured for 2 hrs to generate mid-logarithmic growth cultures for use as inoculates in experiments.
(§2) Bacteria inoculum cell densities were normalized to 5×10^5 cells/ml immediately before use photometrically and subsequently confirmed by colony count. Inoculum of C. albicans contained a cell density of 2.5×10^3 CFU/ml.
(§3) Bulk powdered peptides were first dissolved in 30% trifluoroethanol (TFE) at 1 mg/ml. […] Stock solutions at 2 mg/ml were prepared the day of experimentation from the peptide films by solubilizing a second time in either water or 20% TFE. Aβ stocks prepared in water were sonicated and insoluble peptide aggregates pelleted by centrifugation (10 min×16,000 g). Peptide concentrations in stock solutions were determined immediately before use by bicinchoninic acid (BCA) protein assay. […] For MIC experiments, peptides were serially diluted into growth media. For other experiments stocks were diluted into required working buffers. Experiments included controls for peptide buffer vehicle alone.
(§4) Experiments identified peptide MIC by broth microdilution susceptibility test in conjunction with CFU and alamar blue assays. […] Peptide MIC was taken as the lowest concentration able reduce cell growth by CFU and alamar blue assays by at least two-fold and which correlated with the visible loss of a growth button on the bottom of microtiter wells. Experiments were repeated a minimum of three times for each organism, and tests included at least three replicates for each assay condition. Experiments included control serial dilutions of buffer vehicle alone.

The subject of the next data set is Streptococcus pyogenes. In kind it is cell-based. The method, then: as §1, §2, §3, §4
Data set [2] concerns Staphylococcus epidermidis. In kind it is cell-based. On the procedure: as §1, §2, §3, §4
Another data set deals with Streptococcus pneumoniae. In kind it is cell-based. The settings on record: ATCC 49619; BHIB/LHB; 12 hrs incubation at 37° C. The method, then:
as §1, §2, §3, §4

Another data set concerns Streptococcus mitis. In kind it is cell-based. The conditions noted are these: ATCC 6249; BHIB/LHB; 12 hrs incubation at 37° C. The method, then:
as §1, §2, §3, §4

Another data set relates to Listeria monocytogenes. In kind it is cell-based. The method, then: as §1, §2, §3, §4
The next data set deals with Staphylococcus aureus. In kind it is cell-based. The settings on record: ATCC 25923; MHB; 12 hrs incubation at 37° C. On the procedure:
as §1, §2, §3, §4

Another data set deals with Enterococcus faecalis. In kind it is cell-based. On the procedure: as §1, §2, §3, §4
The test system of a further data set is Escherichia coli. In kind it is cell-based. The settings on record: ATCC 25922; BHIB; 12 hrs incubation at 37° C. On the procedure:
as §1, §2, §3, §4

In a further data set the test system is Streptococcus salivarius. In kind it is cell-based. The conditions noted are these: ATCC 13419; BHIB/LHB; 12 hrs incubation at 37° C. On the procedure:
as §1, §2, §3, §4

The next data set concerns Pseudomonas aeruginosa. In kind it is cell-based. On the procedure:
as §1, §2, §3, §4

A further data set deals with Candida albicans. In kind it is cell-based. The method, then:
as §1, §2, §3, §4

Method for E. faecalis: Bacterial growth with time was monitored by inoculation of agar with diluted incubants and counting CFU. Representative data from six experiments is shown as mean signal of four replicates±s.e.m.
CFU assay; Serial dilutions of incubants were prepared and streaked onto the surface of agar. The agar plates were then incubated overnight at 37° C. and colonies forming units counted.

On to “recAβ42: Recombinant human Aβ42 purchased from rPeptide”, for which the “Inhibition of microbial growth, panel of 12 microorganisms” value (“Inhibition of microbial growth” below) in the data set on 12 microorganisms is on record as “Equivalent findings”.

`C[C@@H](C(=O)O)c1ccc(-c2ccccc2)c(F)c1` [tarenflurbil]: the “Rates of infection in patients receiving the drug” value in [1] is recorded as “significantly increased rates of infection”.

For the compound `CC[C@H](C)[C@H](NC(=O)[C@H](CCCCN)NC(=O)[C@H](CCC(=O)O)NC(=O)[C@H](CCCCN)NC(=O)[C@H](CO)NC(=O)[C@H](CCCCN)NC(=O)[C@H](CCCNC(=N)N)NC(=O)[C@H](Cc1ccccc1)NC(=O)[C@H](Cc1ccccc1)NC(=O)[C@H](CC(=O)O)NC(=O)CNC(=O)[C@H](CC(C)C)NC(=O)[C@@H](N)CC(C)C)C(=O)NCC(=O)N[C@@H](CCCCN)C(=O)N[C@@H](CCC(=O)O)C(=O)N[C@@H](Cc1ccccc1)C(=O)N[C@@H](CCCCN)C(=O)N[C@@H](CCCNC(=N)N)C(=O)N[C@H](C(=O)N[C@H](C(=O)N[C@@H](CCC(N)=O)C(=O)N[C@@H](CCCNC(=N)N)C(=O)N[C@H](C(=O)N[C@@H](CCCCN)C(=O)N[C@@H](CC(=O)O)C(=O)N[C@@H](Cc1ccccc1)C(=O)N[C@@H](CC(C)C)C(=O)N[C@@H](CCCNC(=N)N)C(=O)N[C@@H](CC(N)=O)C(=O)N[C@@H](CC(C)C)C(=O)N[C@H](C(=O)N1CCC[C@H]1C(=O)N[C@@H](CCCNC(=N)N)C(=O)N[C@H](C(=O)N[C@@H](CCC(=O)O)C(=O)N[C@@H](CO)C(=O)O)[C@@H](C)O)C(C)C)[C@@H](C)CC)C(C)C)[C@@H](C)CC` [LL-37], the “Mode of action on E. faecalis growth (bacteriostatic or bactericidal)” value in the data set with E. faecalis is “potent bactericidal activity”. The “MIC against Streptococcus agalactiae” value in the data set on Streptococcus agalactiae turned out to be 12.5 µg/mL (≈ 2.78 µM). The “MIC against Streptococcus pyogenes” value in the data set with Streptococcus pyogenes (ATCC 19615, BHIB/LHB, 18 hrs incubation at 37° C.) was found to be 6.25 µg/mL (≈ 1.39 µM). Besides, the “MIC against Staphylococcus epidermidis” value in [2] (ATCC 12228, BHIB, 18 hrs incubation at 37° C.) was 25 µg/mL (≈ 5.56 µM). Also, the “MIC against Streptococcus pneumoniae” value against Streptococcus pneumoniae is 1.56 µg/mL (≈ 0.347 µM). For the same compound, the “MIC against Streptococcus mitis” value in the data set on Streptococcus mitis was 6.25 µg/mL (≈ 1.39 µM). Moreover, the “MIC against Listeria monocytogenes” value with Listeria monocytogenes (ATCC 19112, BHIB, 18 hrs incubation at 37° C.) was found to be 25 µg/mL (≈ 5.56 µM). Also, the “MIC against Staphylococcus aureus” value against Staphylococcus aureus was determined as 6.25 µg/mL (≈ 1.39 µM). In the data set with Enterococcus faecalis (ATCC 29212, BHIB, 18 hrs incubation at 37° C.), the “MIC against Enterococcus faecalis” value was found to be 6.25 µg/mL (≈ 1.39 µM). Moreover, in the data set with Escherichia coli, the “MIC against Escherichia coli” value is 1.56 µg/mL (≈ 0.347 µM). Moreover, the “MIC against Streptococcus salivarius” value against Streptococcus salivarius stood at 50 µg/mL (≈ 11.1 µM). Besides, the “MIC against Pseudomonas aeruginosa” value against Pseudomonas aeruginosa (ATCC 27853, BHIB, 18 hrs incubation at 37° C.) was 6.25 µg/mL (≈ 1.39 µM). The “MIC against Candida albicans” value against Candida albicans (ATCC 10231, RPMI-1640, 18 hrs incubation at 37° C.) stood at 6.25 µg/mL (≈ 1.39 µM).

For “DAEFGHDSGFEVRHQKLVFFAEDVGSNKGAIIGLMVGGVVIA [roAβ42]”, in the data set with 12 microorganisms, the “Inhibition of microbial growth” value is “demonstrated antimicrobial activity”. Further, in the data set with Streptococcus pyogenes (18 h), the “MIC against Streptococcus pyogenes” value is >50 µg/mL. Besides, the “MIC against Staphylococcus epidermidis” value in data set [2] (18 h) worked out at 3.13 µg/mL. Moreover, the “MIC against Listeria monocytogenes” value against Listeria monocytogenes (18 h) was 6.25 µg/mL. Moreover, the “MIC against Enterococcus faecalis” value in the data set on Enterococcus faecalis (18 h) stood at 3.13 µg/mL. Also, in the data set with Pseudomonas aeruginosa (18 h), the “MIC against Pseudomonas aeruginosa” value is >50 µg/mL. The “MIC against Candida albicans” value against Candida albicans (18 h) worked out at 0.78 µg/mL.

Consider “AIVVGGVMLGIIAGKNSGVDEAFFVLKQHHVEYGSDHRFEAD [reAβ42]”, for which the “Inhibition of microbial growth” value with 12 microorganisms is “not inhibited”. Also, the “MIC against Streptococcus pyogenes” value against Streptococcus pyogenes (18 h) was >50 µg/mL. In addition, the “MIC against Staphylococcus epidermidis” value in data set [2] (18 h) is >50 µg/mL. Further, the “MIC against Listeria monocytogenes” value in the data set with Listeria monocytogenes (18 h) is >50 µg/mL. Also, the “MIC against Enterococcus faecalis” value against Enterococcus faecalis (18 h) was 50 µg/mL. The “MIC against Pseudomonas aeruginosa” value in the data set on Pseudomonas aeruginosa (18 h) is >50 µg/mL. Moreover, in the data set with Candida albicans (18 h), the “MIC against Candida albicans” value was >25 µg/mL.
